Assay results taken from ChEMBL document CHEMBL1146580, “Acinospesigenin-A, -B, and -C: three new triterpenoids from Phytolacca acinosa” (2003).

Test system: Rattus norvegicus
Test: Antiedemic activity against […]-induced paw edema in sc dosed Albino rat
Assay type: functional

SMILES | ED50 [mg/kg]
COC(=O)[C@@]1(C)CC[C@]2(C(=O)O)CC[C@]3(C)C(=C[C@@H](O)[C@@H]4[C@@]5(C)C[C@H](O)[C@H](O)[C@@](C)(C=O)[C@@H]5CC[C@]43C)[C@H]2C1 | 10
COC(=O)[C@@]1(C)CC[C@]2(C(=O)O)CC[C@]3(C)C(=CC[C@@H]4[C@@]5(C)C[C@H](O)[C@H](O)[C@@](C)(C=O)[C@@H]5CC[C@]43C)[C@H]2C1 | 10
C[C@]12CCC(=O)C=C1CC[C@@H]1[C@@H]2C(=O)C[C@@]2(C)[C@H]1CC[C@]2(O)C(=O)CO [CORTISONE] | 30
C[C@]12C=CC(=O)C=C1CC[C@@H]1[C@@H]2[C@@H](O)C[C@@]2(C)[C@H]1CC[C@]2(O)C(=O)CO [PREDNISOLONE] | 60
